Experimental data published in the NIST ThermoML archive (doi:10.1016/j.jct.2007.07.005).

Details: Fluid (supercritical or subcritical phases), vibrating tube

CCCCCO [pentan-1-ol]
Details | mass density [kg/m3]
312.96 K, 512 kPa | 799.65
312.96 K, 1022 kPa | 800.04
312.96 K, 1998 kPa | 800.77
312.96 K, 3005 kPa | 801.53
312.96 K, 4003 kPa | 802.28
312.96 K, 5002 kPa | 803.02
312.96 K, 6018 kPa | 803.76
312.96 K, 6994 kPa | 804.49
312.96 K, 8008 kPa | 805.21
312.96 K, 9005 kPa | 805.93
312.96 K, 10008 kPa | 806.66
312.96 K, 11008 kPa | 807.37
312.96 K, 12000 kPa | 808.07
312.96 K, 13024 kPa | 808.78
312.96 K, 13987 kPa | 809.45
312.96 K, 15014 kPa | 810.14
312.96 K, 15991 kPa | 810.8
312.96 K, 17019 kPa | 811.48
312.96 K, 17991 kPa | 812.12
312.96 K, 19007 kPa | 812.79
312.96 K, 19992 kPa | 813.44
312.96 K, 21031 kPa | 814.1
312.96 K, 22041 kPa | 814.76
312.96 K, 23014 kPa | 815.41
312.96 K, 24003 kPa | 816.04
312.96 K, 25037 kPa | 816.73
322.89 K, 520 kPa | 792.06
322.89 K, 1010 kPa | 792.47
322.89 K, 2005 kPa | 793.27
322.89 K, 3007 kPa | 794.07
322.89 K, 4005 kPa | 794.86
322.89 K, 5018 kPa | 795.63
322.89 K, 6001 kPa | 796.42
322.89 K, 7016 kPa | 797.2
322.89 K, 8020 kPa | 797.97
322.89 K, 8997 kPa | 798.71
322.89 K, 10001 kPa | 799.47
322.89 K, 11005 kPa | 800.21
322.89 K, 11996 kPa | 800.95
322.89 K, 13002 kPa | 801.68
322.89 K, 14013 kPa | 802.4
322.89 K, 15005 kPa | 803.11
322.89 K, 16014 kPa | 803.82
322.89 K, 17001 kPa | 804.51
322.89 K, 18016 kPa | 805.21
322.89 K, 19012 kPa | 805.89
322.89 K, 19992 kPa | 806.56
322.89 K, 21036 kPa | 807.26
322.89 K, 22003 kPa | 807.92
322.89 K, 23024 kPa | 808.61
322.89 K, 23994 kPa | 809.26
322.89 K, 25023 kPa | 810
332.79 K, 493 kPa | 784.29
332.79 K, 1014 kPa | 784.76
332.79 K, 2006 kPa | 785.61
332.79 K, 3025 kPa | 786.48
332.79 K, 4011 kPa | 787.28
332.79 K, 5020 kPa | 788.11
332.79 K, 6003 kPa | 788.91
332.79 K, 6997 kPa | 789.73
332.79 K, 8009 kPa | 790.54
332.79 K, 8995 kPa | 791.31
332.79 K, 9996 kPa | 792.12
332.79 K, 11018 kPa | 792.9
332.79 K, 11995 kPa | 793.66
332.79 K, 13023 kPa | 794.45
332.79 K, 13999 kPa | 795.19
332.79 K, 15010 kPa | 795.95
332.79 K, 16028 kPa | 796.68
332.79 K, 17003 kPa | 797.41
332.79 K, 18040 kPa | 798.14
332.79 K, 19004 kPa | 798.84
332.79 K, 20035 kPa | 799.59
332.79 K, 21024 kPa | 800.29
332.79 K, 21993 kPa | 800.97
332.79 K, 23039 kPa | 801.71
332.79 K, 24015 kPa | 802.4
332.79 K, 25022 kPa | 803.12
342.76 K, 505 kPa | 776.31
342.76 K, 997 kPa | 776.77
342.76 K, 1995 kPa | 777.69
342.76 K, 3011 kPa | 778.59
342.76 K, 4012 kPa | 779.47
342.76 K, 5011 kPa | 780.34
342.76 K, 6011 kPa | 781.22
342.76 K, 7003 kPa | 782.03
342.76 K, 8015 kPa | 782.91
342.76 K, 9000 kPa | 783.73
342.76 K, 10019 kPa | 784.58
342.76 K, 11020 kPa | 785.4
342.76 K, 12002 kPa | 786.2
342.76 K, 13016 kPa | 787.02
342.76 K, 14024 kPa | 787.81
342.76 K, 15002 kPa | 788.59
342.76 K, 16007 kPa | 789.36
342.76 K, 17037 kPa | 790.15
342.76 K, 17988 kPa | 790.87
342.76 K, 19037 kPa | 791.66
342.76 K, 20003 kPa | 792.38
342.76 K, 21015 kPa | 793.14
342.76 K, 22019 kPa | 793.88
342.76 K, 23039 kPa | 794.62
342.76 K, 24027 kPa | 795.36
342.76 K, 25028 kPa | 796.1
352.71 K, 508 kPa | 768.15
352.71 K, 1011 kPa | 768.66
352.71 K, 1995 kPa | 769.61
352.71 K, 3014 kPa | 770.57
352.71 K, 3998 kPa | 771.49
352.71 K, 5022 kPa | 772.45
352.71 K, 6012 kPa | 773.35
352.71 K, 7006 kPa | 774.26
352.71 K, 8024 kPa | 775.17
352.71 K, 9005 kPa | 776.05
352.71 K, 10016 kPa | 776.94
352.71 K, 11026 kPa | 777.81
352.71 K, 12001 kPa | 778.65
352.71 K, 13002 kPa | 779.5
352.71 K, 14026 kPa | 780.35
352.71 K, 15000 kPa | 781.18
352.71 K, 16005 kPa | 781.98
352.71 K, 17023 kPa | 782.81
352.71 K, 18003 kPa | 783.59
352.71 K, 19049 kPa | 784.43
352.71 K, 20035 kPa | 785.2
352.71 K, 21002 kPa | 785.96
352.71 K, 21995 kPa | 786.73
352.71 K, 23020 kPa | 787.52
352.71 K, 24045 kPa | 788.32
352.71 K, 25009 kPa | 789.05
362.59 K, 517 kPa | 759.7
362.59 K, 1023 kPa | 760.25
362.59 K, 2005 kPa | 761.26
362.59 K, 3010 kPa | 762.29
362.59 K, 3998 kPa | 763.28
362.59 K, 5006 kPa | 764.25
362.59 K, 6013 kPa | 765.23
362.59 K, 7014 kPa | 766.21
362.59 K, 8007 kPa | 767.16
362.59 K, 9020 kPa | 768.1
362.59 K, 10006 kPa | 769.02
362.59 K, 10991 kPa | 769.93
362.59 K, 12025 kPa | 770.87
362.59 K, 13008 kPa | 771.76
362.59 K, 13998 kPa | 772.62
362.59 K, 15017 kPa | 773.51
362.59 K, 16000 kPa | 774.37
362.59 K, 17013 kPa | 775.24
362.59 K, 18032 kPa | 776.11
362.59 K, 19003 kPa | 776.9
362.59 K, 20030 kPa | 777.77
362.59 K, 20987 kPa | 778.55
362.59 K, 22033 kPa | 779.4
362.59 K, 23000 kPa | 780.2
362.59 K, 24031 kPa | 781.02
362.59 K, 25026 kPa | 781.82
